Where a name gives a salt, the structure may show the parent alone.
Legend:
[1] = Lipid association with mesoporous silica nanoparticles; format: physicochemical; details: <20 μg liposome per 0.5 mg silica particles; 5% DHPE-Texas Red label; neutral pH
Procedure: To measure the amount of lipid associated with silica nanoparticles as a function of lipid concentration, about 20 μL aliquots of 25 mg/mL silica nanoparticles were mixed with 1, 2, 3, 5, 7, 10, 20, and 30 μL of 2.5 mg/mL lipids. The lipids tested included DOPC, DOPS and DOTAP, all containing 5% DHPE-Texas Red labels. The mixtures were centrifuged. The Texas Red absorbance from the supernatant and the silica nanoparticles was measured.

[2] = Colloidal stability of the silica/lipid mixture as a function of lipid concentration (dynamic light scattering); format: physicochemical; details: at low liposome contents
Procedure: Depending on the relative amount of liposome added, silica particles first aggregated at low lipid concentrations to form large aggregates, which disappeared upon adding more liposomes. […] Similar observations were also reported for polystyrene beads, where aggregation was attributed to liposome mediated nanoparticle assembly at low lipid concentrations. Therefore, to form supported bilayers with good colloidal stability, excess amount of liposomes (50 μg liposome per 0.5 mg silica) were used.

[3] = Quantification of calcein encapsulated / concentration estimation inside mesoporous silica nanoparticles; format: physicochemical; details: supported bilayers of different lipids
Procedure: To prepare supported bilayers that encapsulate calcein, the silica nanoparticles were first mixed with 250 μM calcein and liposomes were subsequently added. The remaining procedures were the same as described above.
Mesoporous silica nanoparticles (about 50 mg, no FITC modification) were dispersed in 2 mL water. About 5 μL of 100 mM calcein was added so the final dye concentration was ˜250 μM. The solution was divided into 50 μL aliquots and equal volumes of liposomes of different compositions were mixed to form supported bilayers. The supported bilayers were centrifuged and washed three times with 200 μL of 0.25×PBS to remove free calcein. Finally, about 50 μL of 1% SDS buffer solution was added to the precipitated supported bilayers to disrupt the lipid bilayer and release the calcein dye. About 150 μL of 0.25×PBS was then added to make the final volume to be about 200 μL and the tubes were centrifuged at 15000 rpm for about 2 minutes to precipitate silica nanoparticles. About 10 μL from the supernatant was transferred into a quartz microcuvette with a path length of about 1 cm to measure the absorbance at a wavelength of about 500 nm, which is proportional to the amount of calcein dye retained in the mesoporous silica nanoparticle.
Because the volume of this final solution was about 200 μL, the retained calcein in silica was then about 9 nmol. […]

[4] = tested on: Chinese Hamster Ovary (CHO) cells; assay: Cellular uptake of supported bilayers (protocells); format: cell-based; details: green fluorescence of cells
Procedure: Cell Culture: Chinese Hamster Ovary cells (CHO) were obtained from the American Type Culture Collection (ATCC) and maintained in K-12 media supplemented with about 10% fetal bovine serum, about 1% penicillin and about 1% streptomycin. The media were changed every two to three days and the cells were passaged by trypsinization. To prepare samples for confocal imaging, round glass cover slips were used for cell growth. The glass slides were treated with 0.1M KOH for at least 24 hours before use. Cells in the media were dropped onto the cover slips and the slips were kept in Petri dishes. The cells were kept in an incubator at 37° C. with 5% CO2 and 95% humidity. Cellular uptake of supported bilayers (protocells): about 1 mL of serum free media was warmed to about 37° C. and about 10 μL of the above prepared supported bilayers were added and vortexed. To study the uptake of supported bilayers by CHO cells, the cells were grown to ˜70% confluence. The old media was removed and fresh media with supported bilayers were introduced. The cells were incubated for about four hours at about 37° C. and free particles were washed away with PBS and media before imaging. Confocal fluorescence microscopy: A Bio-Rad Radiance 2100 confocal fluorescence microscope system was used for imaging cells. […]

Structure (SMILES)	association of liposomes with silica nanoparticles [1]	average size of particles [2]	calcein encapsulation efficiency (comparison of lipids) [3]	uptake of calcein into CHO cells [4]
CCCCCCCC/C=C\CCCCCCCC(=O)OC[C@H](COP(=O)([O-])OCC[N+](C)(C)C)OC(=O)CCCCCCC/C=C\CCCCCCCC [DOPC, 1,2-Dioleoyl-sn-Glycero-3-Phosphocholine]	almost quantitatively associated	significant increase	–	–
CCCCCCCC/C=C\CCCCCCCC(=O)OC[C@H](COP(=O)(O)OC[C@H](N)C(=O)O)OC(=O)CCCCCCC/C=C\CCCCCCCC [DOPS, 1,2-Dioleoyl-sn-Glycero-3-[Phospho-L-Serine] (Sodium Salt)]	did not associate	–	–	–
CCCCCCCC/C=C\CCCCCCCC(=O)OCC(C[N+](C)(C)C)OC(=O)CCCCCCC/C=C\CCCCCCCC.[Cl-] (stereo not shown) [DOTAP, 1,2-Dioleoyl-3-Trimethylammonium-Propane (Chloride Salt)]	almost quantitatively associated	significant increase	highest	–
O=C(O)CN(CC(=O)O)Cc1cc2c(cc1O)Oc1cc(O)c(CN(CC(=O)O)CC(=O)O)cc1C21OC(=O)c2ccccc21 [calcein]	–	–	–	can not take

— patent US8734816B2, “Porous nanoparticle supported lipid bilayer nanostructures” (STC.UNM, priority 2009, dated 2014)
